Reference: US5952307A, “Basic α-aminoalkylphosphonate derivatives” (priority 1997, dated 1999)

Experiments:
Assay type in all cases: biochemical
human granzyme A = target: T1, human granzyme A (Homo sapiens, UniProt P12544); assay: Inactivation rate of human granzyme A, incubation method; settings: Table I; 0.1M Hepes, 0.01M CaCl2 pH 7.5, 25° C., 7.6% DMSO, substrate Z--Arg--SBzl
T1 sequence (P12544 29-262): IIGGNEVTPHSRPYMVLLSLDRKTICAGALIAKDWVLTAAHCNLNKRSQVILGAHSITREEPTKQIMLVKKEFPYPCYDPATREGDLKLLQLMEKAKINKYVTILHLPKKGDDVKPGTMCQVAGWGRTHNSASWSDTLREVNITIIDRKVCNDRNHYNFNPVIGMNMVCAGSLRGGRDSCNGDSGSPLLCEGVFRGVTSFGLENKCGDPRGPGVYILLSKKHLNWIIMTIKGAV
Method: (§1) Inactivation rates of serine proteases by aryl diesters of peptidyl derivatives of α-aminoalkylphosphonates were measured by the incubation method. An aliquot of inhibitor (25 or 50 μl) in Me2 SO was added to a buffered enzyme solution (0.01-2.3 μM) to initiate the inactivation. Aliquots (50 μl) were withdrawn at various intervals and the residual enzymatic activity was measured. Me2 SO concentration in the reaction mixture was 8-12% (v/v). A 0.1 M HEPES, 0.01 M CaCl2, pH 7.5 buffer was utilized for trypsin and trypsin-like enzymes. A 0.1 M HEPES, 0.5 M NaCl, pH 7.5, was utilized for the other serine proteases. Peptide thioesters or peptide nitroanilides with the appropriate sequences were used as substrates for various serine proteases. All peptide thioesters hydrolysis rates were measured with the assay mixture containing 4,4'-dithiodipyridine {ε324 =19800 M^-1 cm^-1; Grasetti & Murray, Arch. Biochem. Biophys. 1967, 119, 41-48}. Peptide 4-nitroanilide hydrolysis was measured at 410 nm {ε410 =8800 M^-1 cm^-1; Erlanger et al., Arch. Biochem. Biophys. 1961, 95, 271-278}. First order inactivation rate constants (Kobs) were obtained from plots of In vt /vo vs time, and the correlation coefficients were greater then 0.98.
(§2) ^a Inhibition constants were measured in 0.1M Hepes, 0.01M CaCl2
(§3) pH 7.5 for trypsin, granzymes A, and K, and in 0.1M Hepes, 10% glycerol,
(§4) 10 mM heparin, pH 7.5 for mast cell tryptase, and at 25° C. The
(§5) reaction mixtures contained 2% DMSO for trypsin, 7.6% for granzyme A, and
(§6) 7.1% for granzyme K and tryptase. The substrate was Z--Arg--SBzl for
(§7) granzymes and trypsin, and Z--Arg--SBzl or Z--Lys--SBzl for tryptase in
(§8) the presence of DTNB. The inhibitor # concentration ranged from 0.001 to
(§9) ^b NI, no inhibition after 25 min of incubation with enzyme.

rat granzyme K = target: T2, rat granzyme K (Rattus norvegicus, UniProt P49864); assay: Inactivation rate of rat granzyme K, incubation method; settings: Table I; 0.1M Hepes, 0.01M CaCl2 pH 7.5, 25° C., 7.1% DMSO, substrate Z--Arg--SBzl; NI = no inhibition after 25 min of incubation
T2 sequence (P49864 26-258): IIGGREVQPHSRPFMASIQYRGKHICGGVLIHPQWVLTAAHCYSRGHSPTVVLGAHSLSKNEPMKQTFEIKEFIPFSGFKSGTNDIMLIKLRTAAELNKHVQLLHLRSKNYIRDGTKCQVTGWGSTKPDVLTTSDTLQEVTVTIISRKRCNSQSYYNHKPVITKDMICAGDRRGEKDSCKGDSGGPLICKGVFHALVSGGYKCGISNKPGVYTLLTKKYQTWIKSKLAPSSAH
Method: as §1, §2, §3, §4, §5, §6, §7, §8, §9

mast cell tryptase = mast cell tryptase (Homo sapiens, UniProt Q15661); assay: Inactivation rate of mast cell tryptase, incubation method; settings: for kobsd /[I] mast cell tryptase: 0.1M Hepes, 10% glycerol, 10 mM heparin, pH 7.5, 25° C., 7.1% DMSO, NI = no inhibition after 25 min of incubation; for kobs /[I] mast cell tryptase: 0.07 μM tryptase, 20-66 μM inhibitor, Hepes pH 7.5, heparin, 9% glycerol, 8% DMSO, 25° C., NI = no inhibition
mast cell tryptase, sequence (Q15661 31-275): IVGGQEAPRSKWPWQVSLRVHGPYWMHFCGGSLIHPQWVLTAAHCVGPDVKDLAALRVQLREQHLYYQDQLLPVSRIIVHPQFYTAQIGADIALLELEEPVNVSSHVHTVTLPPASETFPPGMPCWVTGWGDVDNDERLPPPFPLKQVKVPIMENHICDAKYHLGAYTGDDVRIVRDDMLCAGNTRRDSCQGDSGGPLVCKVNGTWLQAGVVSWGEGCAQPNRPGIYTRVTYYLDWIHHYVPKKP
Method: as §1, §2, §3, §4, §5, §6, §7, §8, §9
(§10) ^a Enzyme was incubated with the inhibitor in 250 μL of the proper
(§11) containing 428 mM NaCl and 8% DMSO; 0.07 μM tryptase, 20-66 μM
inhibitor # in an mM Hepes, pH 7.5 buffer containing 8 mM heparin, 166 m
NaCl, 0.8 mM Mes, 9% glycerol and 8% DMSO; 0.42 μM factor Xa, 66 μM
(§12) DMSO. Aliquots of 25 μL were withdrawn at various intervals and the
(§13) residual enzymatic activity was measured as described in experimental
(§14) section. The kobs values were calculated from pseudofirst-order
(§15) ^a Enzyme (0.06-0.5 μM) was incubated with the inhibitor (0.25-42
(§16) μM) in 250 μL of the proper buffer containing 9% DMSO at 25°
(§17) C. The final inhibition reaction mixtures are given in the footnote to
(§18) Table 1. Aliquots of 25 μL were withdrawn at various intervals and the […]

bovine trypsin = target: T3, bovine trypsin (Bos taurus, UniProt P00760); assay: Inactivation rate of bovine trypsin, incubation method; settings: for kobsd /[I] bovine trypsin: Table I, 0.1M Hepes, 0.01M CaCl2 pH 7.5, 25° C., 2% DMSO, substrate Z--Arg--SBzl, NI = no inhibition after 25 min; for kobs /[I] bovine trypsin: Table II, 0.13 μM trypsin, 0.25-42 μM inhibitor, 80 mM Hepes pH 7.5, 1 mM CaCl2, 8% DMSO, 25° C., NI = no inhibition
T3 sequence (P00760 24-246): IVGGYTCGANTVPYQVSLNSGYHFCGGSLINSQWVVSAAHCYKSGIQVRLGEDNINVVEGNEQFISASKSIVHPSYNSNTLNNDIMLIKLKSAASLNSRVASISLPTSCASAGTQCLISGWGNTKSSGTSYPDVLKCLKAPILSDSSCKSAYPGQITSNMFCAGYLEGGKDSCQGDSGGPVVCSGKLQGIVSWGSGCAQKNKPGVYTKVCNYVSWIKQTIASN
Method: as §1, §2, §3, §4, §5, §6, §7, §8, §9, §10
(§19) buffer at 25° C. Specifically, the inhibition reation mixtures wer
composed of: 0.13 μM trypsin, 0.25-42 μM inhibitor in an 80 mM
(§20) Hepes, pH 7.5 buffer containing 1 mM CaCl2 and 8% DMSO; 0.07 μM
as §12, §13, §14, §15, §16, §17, §18

human thrombin = target: T4, human thrombin (Homo sapiens, UniProt P00734); settings: Table II; 0.07 μM thrombin, 0.25-42 μM inhibitor, 80 mM Hepes pH 7.5, 428 mM NaCl, 8% DMSO, 25° C.; NI = no inhibition
T4 construct: bovine trypsin, human thrombin
Method: as §1, with “271-278}.” for “271-278}. First order inactivation rate constants (Kobs) were obtained from plots of In vt /vo vs time, and the correlation coefficients were greater then 0.98.”
as §10, §19, §20
thrombin, 0.25-42 μM inhibitor in an 80 mM Hepes, pH 7.5 buffer
as §11, §12, §13, §14, §15, §16, §17, §18

Compound | kobsd /[I] human granzyme A (human granzyme A) [M⁻¹ s⁻¹] | kobsd /[I] rat granzyme K (rat granzyme K) [M⁻¹ s⁻¹] | kobsd /[I] mast cell tryptase (mast cell tryptase; Table I) [M⁻¹ s⁻¹] | kobsd /[I] bovine trypsin (bovine trypsin) [M⁻¹ s⁻¹] | kobs /[I] bovine trypsin (bovine trypsin) | kobs /[I] human thrombin (human thrombin) | kobs /[I] mast cell tryptase (mast cell tryptase; Table II) [M⁻¹ s⁻¹] | % Inh mast cell tryptase (mast cell tryptase; Table I, printed in the kobsd/[I] column) [%] | % Inh mast cell tryptase (mast cell tryptase; Table II, printed in the kobs/[I] column) [%]
CC(NC(=O)C(CC(=O)O)NC(=O)OCc1ccccc1)C(=O)NC(c1ccc(C(=N)N)cc1)P(=O)(Oc1ccccc1)Oc1ccccc1 (mixture of isomers) [Cbz--Asp--Ala-(4-AmPhGly)^P (OPh)2] | 240 ± 5 | 6 | 0.7 | 2550 ± 145 | 2,550 ± 145 M^-1 s^-1 | 110 ± 12 M⁻¹ s⁻¹ | – | – | –
CC(NC(=O)C(CCCCN)NC(=O)OCc1ccccc1)C(=O)NC(c1ccc(C(=N)N)cc1)P(=O)(Oc1ccccc1)Oc1ccccc1 (mixture of isomers) [Cbz--Lys--Ala-(4-AmPhGly)^P (OPh)2] | 90 ± 9 | – | 2 | 3140 ± 262 | 3,140 ± 262 M^-1 s^-1 | 180 ± 7 M⁻¹ s⁻¹ | 2.0 ± 0.0 | – | –
CC(NC(=O)C(CCCCNC(=O)OC(C)(C)C)NC(=O)OCc1ccccc1)C(=O)NC(c1ccc(C(=N)N)cc1)P(=O)(Oc1ccccc1)Oc1ccccc1 (mixture of isomers) [Cbz--Lyz(Boc)--Ala-(4-AmPhGly)^P (OPh)2] | 110 ± 5 | – | 8.5 ± 0.4 | 3100 ± 177 | 3,100 ± 177 M^-1 s^-1 | 450 ± 58 M⁻¹ s⁻¹ | 8.7 ± 0.4 | – | –
CC(NC(=O)C(Cc1ccccc1)NC(=O)OCc1ccccc1)C(=O)NC(c1ccc(C(=N)N)cc1)P(=O)(Oc1ccccc1)Oc1ccccc1 (mixture of isomers) [Cbz--Phe--Ala-(4-AmPhGly)^P (OPh)2] | 1770 ± 13 | 4.2 ± 0.3 | 4 | 3010 ± 318 | 3,010 ± 318 M^-1 s^-1 | 1,150 ± 88 M^-1 s^-1 | 4.0 ± 0.3 | – | –
N=C(N)c1ccc(C(NC(=O)[C@@H]2CCCN2C(=O)CC(c2ccccc2)c2ccccc2)P(=O)(Oc2ccccc2)Oc2ccccc2)cc1 (some centres unmarked) [3,3-Diphenylpropanoyl-Pro-(4-AmPhGly)^P (OPh)2] | 250 ± 8 | 1830 ± 140 | – | 2660 ± 40 | 2,660 ± 40 M^-1 s^-1 | 80,300 ± 368 M^-1 s^-1 | – | – | –
C[C@H](NC(=O)[C@H](CC(=O)OC(C)(C)C)NC(=O)OCc1ccccc1)C(=O)NC(c1ccc(C(=N)N)cc1)P(=O)(Oc1ccccc1)Oc1ccccc1 (some centres unmarked) [Cbz--Asp(O-t-Bu)--Ala-(4-AmPhGly)^P (OPh)2] | 280 ± 5 | – | 3 | 2000 ± 24 | 2,000 ± 24 M^-1 s^-1 | 480 ± 93 M⁻¹ s⁻¹ | 3 ± 0 | – | –
C[C@@H](O)[C@H](NC(=O)OCc1ccccc1)C(=O)NC(c1ccc(C(=N)N)cc1)P(=O)(Oc1ccccc1)Oc1ccccc1 (some centres unmarked) [Cbz--Thr-(4-AmPhGly)^P (OPh)2] | 2220 ± 40 | 3 | – | 97 | 97 ± 2 M⁻¹ s⁻¹ | 61 ± 3 M⁻¹ s⁻¹ | – | – | –
Cl.N=C(N)c1ccc(C(NC(=O)[C@@H]2CCCN2C(=O)c2cccc(Oc3ccccc3)c2)P(=O)(Oc2ccccc2)Oc2ccccc2)cc1 (some centres unmarked) [Diphenyl N-(N-(3-Phenoxybenzoylprolyl))amino(4-amidinophenyl)methanephosphonate Hydrochloride] | 330 ± 58 | – | – | 4080 ± 32 | 4,080 ± 32 M^-1 s^-1 | 1,340 ± 225 M^-1 s^-1 | – | 7 | 7
